Positions count from the first letter of the chain named.
Legend:
[1] = biological target: T1, human AT1 receptor (angiotensin II type 1 receptor) (Homo sapiens, UniProt P30556); assay: […]-Ang II competition binding, membranes
T1 construct: gene AGTR1; full-length receptor transfected in HEK293A cells; AT1 (human)-mCherry plasmid for NFAT assay
T1 sequence (P30556 1-359): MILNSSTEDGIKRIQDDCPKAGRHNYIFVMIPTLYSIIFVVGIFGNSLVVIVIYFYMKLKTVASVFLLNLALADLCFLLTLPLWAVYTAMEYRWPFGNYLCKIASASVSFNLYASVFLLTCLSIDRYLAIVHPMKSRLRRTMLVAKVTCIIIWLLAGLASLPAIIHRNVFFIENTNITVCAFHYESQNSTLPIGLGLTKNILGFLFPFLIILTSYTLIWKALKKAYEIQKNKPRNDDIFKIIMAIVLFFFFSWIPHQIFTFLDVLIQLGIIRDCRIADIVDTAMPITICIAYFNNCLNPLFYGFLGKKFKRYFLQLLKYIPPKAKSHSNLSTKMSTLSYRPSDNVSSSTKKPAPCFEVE

[2] = biological target: T2, human AT1 receptor (angiotensin II type 1 receptor) (Homo sapiens, UniProt P30556, C289S); assay: […]-Ang II competition binding, membranes
T2 construct: gene AGTR1; full-length receptor transfected in HEK293A cells; AT1 (human)-mCherry plasmid for NFAT assay
T2 sequence (P30556 1-359 C289S): T1 sequence (P30556 1-359) with C289S

[3] = biological target: T3, human AT1 receptor (angiotensin II type 1 receptor) (Homo sapiens, UniProt P30556, R167A); assay: […]-Ang II competition binding, membranes
T3 construct: gene AGTR1; full-length receptor transfected in HEK293A cells; AT1 (human)-mCherry plasmid for NFAT assay
T3 sequence (P30556 1-359 R167A): T1 sequence (P30556 1-359) with R167A

[4] = biological target: T1, human AT1 receptor (angiotensin II type 1 receptor); assay: Ca2+ flux, Fluo-3-AM, HEK293A cells; type: cell-based

NC(CCS)C(=O)O (racemic) [Hcy]
Ki [1]: 10.7 µM
Ki [2]: 159 µM
Ki [3]: 92 µM
EC50 [4]: 81.3 µM

Source: article PMC5750214 (Nature Communications, 2018)
